Target: T1, PLK1 (Homo sapiens, UniProt P53350)
T1 construct: endogenous in cells; host or cells: HeLa
Experiment: PLK1 protein degradation in HeLa cells, Western blotting (PLK1/GAPDH ratio)
Assay type: cell-based
Details: 6 hours compound incubation; for DC50: measured only if the grade of Dmax is A or B; for Dmax: thymidine block and release, 10 points three-fold from 3 μM, PLK1 to GAPDH ratio, read-out: Dmax
Procedure, shortened: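 Thymidine-synchronised HeLa cells (2 mM, 24 h) released 4 h into complete medium, then treated 6 h with compound in 10-point 3-fold dilutions from 3 μM. RIPA lysates (15 μg protein) run on SDS-PAGE; PLK1 Western blot normalised to GAPDH.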

T1 sequence (P53350 whole entry): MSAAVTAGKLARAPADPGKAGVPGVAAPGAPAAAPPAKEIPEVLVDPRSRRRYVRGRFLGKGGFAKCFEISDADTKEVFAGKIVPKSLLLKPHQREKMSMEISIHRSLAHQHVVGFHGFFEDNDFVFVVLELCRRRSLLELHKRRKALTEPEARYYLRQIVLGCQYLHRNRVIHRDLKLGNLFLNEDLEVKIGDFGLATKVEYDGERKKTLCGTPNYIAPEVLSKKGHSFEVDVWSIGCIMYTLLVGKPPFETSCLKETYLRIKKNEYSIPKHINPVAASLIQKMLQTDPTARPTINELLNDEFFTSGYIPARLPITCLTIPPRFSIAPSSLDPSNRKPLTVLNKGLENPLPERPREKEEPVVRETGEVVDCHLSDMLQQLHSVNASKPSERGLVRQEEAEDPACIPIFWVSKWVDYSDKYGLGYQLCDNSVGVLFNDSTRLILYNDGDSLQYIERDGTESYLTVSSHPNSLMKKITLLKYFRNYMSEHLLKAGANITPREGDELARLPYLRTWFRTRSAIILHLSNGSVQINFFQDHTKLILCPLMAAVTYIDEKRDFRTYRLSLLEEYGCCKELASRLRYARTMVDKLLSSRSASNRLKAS

DC50 [nM] | Dmax [%] | Structure (SMILES)
≤ 50 | ≥ 80 | COc1cc(C(=O)NC2CCN(CC3CCN(c4cccc5c4C(=O)N(C4CCC(=O)NC4=O)C5=O)CC3)CC2)c(F)cc1Nc1ncc2c(n1)N(C1CCCC1)CC(F)(F)C(=O)N2C (centres unmarked) [Compound 65, 4-((9-cyclopentyl-7,7-difluoro-5-methyl-6-oxo-6,7,8,9-tetrahydro-5H-pyrimido[4,5-b][1,4]diazepin-2-yl)amino)-N-(1-((1-(2-(2,6-dioxopiperidin-3-yl)-1,3-dioxoisoindolin-4-yl)piperidin-4-yl)methyl)piperidin-4-yl)-2-fluoro-5-methoxybenzamide]
≤ 500 | 60 to 80 | COc1cc(C(=O)NC2CCN(CCN3CCN(c4cccc5c4C(=O)N(C4CCC(=O)NC4=O)C5=O)CC3)CC2)c(F)cc1Nc1ncc2c(n1)N(C1CCCC1)CC(F)(F)C(=O)N2C (centres unmarked) [Compound 66, 4-((9-cyclopentyl-7,7-difluoro-5-methyl-6-oxo-6,7,8,9-tetrahydro-5H-pyrimido[4,5-b][1, 4]diazepin-2-yl)amino)-N-(1-(2-(4-(2-(2,6-dioxopiperidin-3-yl)-1,3-dioxoisoindolin-4-yl)piperazin-1-yl)ethyl)piperidin-4-yl)-2-fluoro-5-methoxybenzamide]
≤ 500 | 60 to 80 | COc1cc(C(=O)NC2CCN(CC3CCN(c4ccc5c(c4)C(=O)N(C4CCC(=O)NC4=O)C5=O)CC3)CC2)c(F)cc1Nc1ncc2c(n1)N(C1CCCC1)CC(F)(F)C(=O)N2C (centres unmarked) [Compound 67, 4-((9-cyclopentyl-7,7-difluoro-5-methyl-6-oxo-6,7,8,9-tetrahydro-5H-pyrimido[4,5-b][1,4]diazepin-2-yl)amino)-N-(1-((1-(2-(2,6-dioxopiperidin-3-yl)-1,3-dioxoisoindolin-5-yl)piperidin-4-yl)methyl)piperidin-4-yl)-2-fluoro-5-methoxybenzamide]
≤ 500 | 60 to 80 | COc1cc(C(=O)NC2CCN(CCN3CCN(c4ccc5c(c4)C(=O)N(C4CCC(=O)NC4=O)C5=O)CC3)CC2)c(F)cc1Nc1ncc2c(n1)N(C1CCCC1)CC(F)(F)C(=O)N2C (centres unmarked) [Compound 68, 4-((9-cyclopentyl-7,7-difluoro-5-methyl-6-oxo-6,7,8,9-tetrahydro-5H-pyrimido[4,5-b][1,4]diazepin-2-yl)amino)-N-(1-(2-(4-(2-(2,6-dioxopiperidin-3-yl)-1,3-dioxoisoindolin-5-yl)piperazin-1-yl)ethyl)piperidin-4-yl)-2-fluoro-5-methoxybenzamide]
≤ 50 | ≥ 80 | COc1cc(C(=O)NC2CCN(C(=O)N3CCN(c4cccc5c4C(=O)N(C4CCC(=O)NC4=O)C5=O)CC3)CC2)c(F)cc1Nc1ncc2c(n1)N(C1CCCC1)CC(F)(F)C(=O)N2C (centres unmarked) [Compound 69, 4-((9-cyclopentyl-7,7-difluoro-5-methyl-6-oxo-6,7,8,9-tetrahydro-5H-pyrimido[4,5-b][1,4]diazepin-2-yl)amino)-N-(1-(4-(2-(2,6-dioxopiperidin-3-yl)-1,3-dioxoisoindolin-4-yl)piperazine-1-carbonyl)piperidin-4-yl)-2-fluoro-5-methoxybenzamide]
≤ 500 | 60 to 80 | COc1cc(C(=O)NC2CCN(C(=O)CN3CCN(c4cccc5c4C(=O)N(C4CCC(=O)NC4=O)C5=O)CC3)CC2)c(F)cc1Nc1ncc2c(n1)N(C1CCCC1)CC(F)(F)C(=O)N2C (centres unmarked) [Compound 70, 4-((9-cyclopentyl-7,7-difluoro-5-methyl-6-oxo-6,7,8,9-tetrahydro-5H-pyrimido[4,5-b][1,4]diazepin-2-yl)amino)-N-(1-(2-(4-(2-(2,6-dioxopiperidin-3-yl)-1,3-dioxoisoindolin-4-yl)piperazin-1-yl)acetyl)piperidin-4-yl)-2-fluoro-5-methoxybenzamide]
≤ 50 | ≥ 80 | COc1cc(C(=O)NC2CCN(C(=O)CCN3CCN(c4cccc5c4C(=O)N(C4CCC(=O)NC4=O)C5=O)CC3)CC2)c(F)cc1Nc1ncc2c(n1)N(C1CCCC1)CC(F)(F)C(=O)N2C (centres unmarked) [Compound 71, 4-((9-cyclopentyl-7,7-difluoro-5-methyl-6-oxo-6,7,8,9-tetrahydro-5H-pyrimido[4,5-b][1,4]diazepin-2-yl)amino)-N-(1-(3-(4-(2-(2,6-dioxopiperidin-3-yl)-1,3-dioxoisoindolin-4-yl)piperazin-1-yl)propanoyl)piperidin-4-yl)-2-fluoro-5-methoxybenzamide]
≤ 500 | 60 to 80 | COc1cc(C(=O)NC2CCN(C(=O)N3CCN(c4ccc5c(c4)C(=O)N(C4CCC(=O)NC4=O)C5=O)CC3)CC2)c(F)cc1Nc1ncc2c(n1)N(C1CCCC1)CC(F)(F)C(=O)N2C (centres unmarked) [Compound 72, 4-((9-cyclopentyl-7,7-difluoro-5-methyl-6-oxo-6,7,8,9-tetrahydro-5H-pyrimido[4,5-b][1,4]diazepin-2-yl)amino)-N-(1-(4-(2-(2,6-dioxopiperidin-3-yl)-1,3-dioxoisoindolin-5-yl)piperazine-1-carbonyl)piperidin-4-yl)-2-fluoro-5-methoxybenzamide]
≤ 50 | ≥ 80 | COc1cc(C(=O)NC2CCN(C(=O)CN3CCN(c4ccc5c(c4)C(=O)N(C4CCC(=O)NC4=O)C5=O)CC3)CC2)c(F)cc1Nc1ncc2c(n1)N(C1CCCC1)CC(F)(F)C(=O)N2C (centres unmarked) [Compound 73, 4-((9-cyclopentyl-7,7-difluoro-5-methyl-6-oxo-6,7,8,9-tetrahydro-5H-pyrimido[4,5-b][1,4]diazepin-2-yl)amino)-N-(1-(2-(4-(2-(2,6-dioxopiperidin-3-yl)-1,3-dioxoisoindolin-5-yl)piperazin-1-yl)acetyl)piperidin-4-yl)-2-fluoro-5-methoxybenzamide]
≤ 50 | ≥ 80 | COc1cc(C(=O)NC2CCN(C(=O)CCN3CCN(c4ccc5c(c4)C(=O)N(C4CCC(=O)NC4=O)C5=O)CC3)CC2)c(F)cc1Nc1ncc2c(n1)N(C1CCCC1)CC(F)(F)C(=O)N2C (centres unmarked) [Compound 74, 4-((9-cyclopentyl-7,7-difluoro-5-methyl-6-oxo-6,7,8,9-tetrahydro-5H-pyrimido[4,5-b][1,4]diazepin-2-yl)amino)-N-(1-(3-(4-(2-(2,6-dioxopiperidin-3-yl)-1,3-dioxoisoindolin-5-yl)piperazin-1-yl)propanoyl)piperidin-4-yl)-2-fluoro-5-methoxybenzamide]
≤ 50 | ≥ 80 | COc1cc(C(=O)NC2CCN(CCOCCOCCNc3cccc4c3CN(C3CCC(=O)NC3=O)C4=O)CC2)c(F)cc1Nc1ncc2c(n1)N(C1CCCC1)CC(F)(F)C(=O)N2C (centres unmarked) [Compound 75, 4-((9-cyclopentyl-7,7-difluoro-5-methyl-6-oxo-6,7,8,9-tetrahydro-5H-pyrimido[4,5-b][1,4]diazepin-2-yl)amino)-N-(1-(2-(2-(2-((2-(2,6-dioxopiperidin-3-yl)-1-oxoisoindolin-4-yl)amino)ethoxy)ethoxy)ethyl)piperidin-4-yl)-2-fluoro-5-methoxybenzamide]
≤ 500 | 60 to 80 | COc1cc(C(=O)NC2CCN(CCOCCOCCOCCOCCNc3cccc4c3CN(C3CCC(=O)NC3=O)C4=O)CC2)c(F)cc1Nc1ncc2c(n1)N(C1CCCC1)CC(F)(F)C(=O)N2C (centres unmarked) [Compound 76, 4-((9-cyclopentyl-7,7-difluoro-5-methyl-6-oxo-6,7,8,9-tetrahydro-5H-pyrimido[4,5-b][1,4]diazepin-2-yl)amino)-N-(1-(14-((2-(2,6-dioxopiperidin-3-yl)-1-oxoisoindolin-4-yl)amino)-3,6,9,12-tetraoxatetradecyl)piperidin-4-yl)-2-fluoro-5-methoxybenzamide]
≤ 500 | 60 to 80 | COc1cc(C(=O)NC2CCN(CCCCCCCCNc3cccc4c3CN(C3CCC(=O)NC3=O)C4=O)CC2)c(F)cc1Nc1ncc2c(n1)N(C1CCCC1)CC(F)(F)C(=O)N2C (centres unmarked) [Compound 77, 4-((9-cyclopentyl-7,7-difluoro-5-methyl-6-oxo-6,7,8,9-tetrahydro-5H-pyrimido[4,5-b][1,4]diazepin-2-yl)amino)-N-(1-(8-((2-(2,6-dioxopiperidin-3-yl)-1-oxoisoindolin-4-yl)amino)octyl)piperidin-4-yl)-2-fluoro-5-methoxybenzamide]
≤ 50 | ≥ 80 | COc1cc(C(=O)NC2CCN(CCOCCOCCOCCOCCNc3cccc4nnn(C5CCC(=O)NC5=O)c(=O)c34)CC2)c(F)cc1Nc1ncc2c(n1)N(C1CCCC1)CC(F)(F)C(=O)N2C (centres unmarked) [Compound 78, 4-((9-cyclopentyl-7,7-difluoro-5-methyl-6-oxo-6,7,8,9-tetrahydro-5H-pyrimido[4,5-b][1,4]diazepin-2-yl)amino)-N-(1-(14-((3-(2,6-dioxopiperidin-3-yl)-4-oxo-3,4-dihydrobenzo[d][1,2,3]triazin-5-yl)amino)-3,6,9,12-tetraoxatetradecyl)piperidin-4-yl)-2-fluoro-5-methoxybenzamide]
≤ 50 | ≥ 80 | COc1cc(C(=O)NC2CCN(CCCCCCCCNc3cccc4nnn(C5CCC(=O)NC5=O)c(=O)c34)CC2)c(F)cc1Nc1ncc2c(n1)N(C1CCCC1)CC(F)(F)C(=O)N2C (centres unmarked) [Compound 79, 4-((9-cyclopentyl-7,7-difluoro-5-methyl-6-oxo-6,7,8,9-tetrahydro-5H-pyrimido[4,5-b][1,4]diazepin-2-yl)amino)-N-(1-(8-((3-(2,6-dioxopiperidin-3-yl)-4-oxo-3,4-dihydrobenzo[d][1,2,3]triazin-5-yl)amino)octyl)piperidin-4-yl)-2-fluoro-5-methoxybenzamide]
– | < 60 | COc1cc(C(=O)NC2CCN(CCOCCOCC(=O)N[C@H](C(=O)N3C[C@H](O)C[C@H]3C(=O)NCc3ccc(-c4scnc4C)cc3)C(C)(C)C)CC2)c(F)cc1Nc1ncc2c(n1)N(C1CCCC1)CC(F)(F)C(=O)N2C [Compound 80]
– | < 60 | COc1cc(C(=O)NC2CCN(CCOCCOCCOCC(=O)N[C@H](C(=O)N3C[C@H](O)C[C@H]3C(=O)NCc3ccc(-c4scnc4C)cc3)C(C)(C)C)CC2)c(F)cc1Nc1ncc2c(n1)N(C1CCCC1)CC(F)(F)C(=O)N2C [Compound 81]
